# Read-outs that look alike come from different tables or passages of the source. Ends that are not written are not given here. Peptide text beside a SMILES is read from it.
# Assays:
# CRF2R = biological target: T1, CRF2R (Homo sapiens, UniProt Q13324); assay: CRF2R agonist activation (EC50 / Emax), called comparative CRF binding; type: cell-based; conditions: for Emax: read-out: CRF2R Emax
# T1 sequence (Q13324 1-411): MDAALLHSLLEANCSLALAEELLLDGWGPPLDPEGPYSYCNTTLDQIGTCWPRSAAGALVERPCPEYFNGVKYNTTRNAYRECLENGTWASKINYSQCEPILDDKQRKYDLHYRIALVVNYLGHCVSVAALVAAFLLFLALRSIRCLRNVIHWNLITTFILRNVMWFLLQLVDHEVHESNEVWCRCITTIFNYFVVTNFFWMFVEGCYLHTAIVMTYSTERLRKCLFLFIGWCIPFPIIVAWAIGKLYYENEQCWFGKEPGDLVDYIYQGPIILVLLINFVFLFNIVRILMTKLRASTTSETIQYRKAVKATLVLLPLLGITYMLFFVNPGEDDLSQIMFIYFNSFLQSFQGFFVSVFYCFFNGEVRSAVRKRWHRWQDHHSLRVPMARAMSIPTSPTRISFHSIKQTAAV
# Summary of the method: (§1)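 CRFR-expressing cells + peptide vs vehicle; read-out cAMP (lysate assay) or CRE-linked reporter expression (luciferase, CAT, fluorescent protein, alkaline phosphatase, etc.). Signal compared against vehicle-treated cells.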
# CRF1R = biological target: T2, CRF1R (Homo sapiens, UniProt P34998); assay: CRF1R agonist activation (EC50 / Emax), called comparative CRF binding; type: cell-based; conditions: for Emax: read-out: CRF1R Emax
# T2 sequence (P34998 24-415): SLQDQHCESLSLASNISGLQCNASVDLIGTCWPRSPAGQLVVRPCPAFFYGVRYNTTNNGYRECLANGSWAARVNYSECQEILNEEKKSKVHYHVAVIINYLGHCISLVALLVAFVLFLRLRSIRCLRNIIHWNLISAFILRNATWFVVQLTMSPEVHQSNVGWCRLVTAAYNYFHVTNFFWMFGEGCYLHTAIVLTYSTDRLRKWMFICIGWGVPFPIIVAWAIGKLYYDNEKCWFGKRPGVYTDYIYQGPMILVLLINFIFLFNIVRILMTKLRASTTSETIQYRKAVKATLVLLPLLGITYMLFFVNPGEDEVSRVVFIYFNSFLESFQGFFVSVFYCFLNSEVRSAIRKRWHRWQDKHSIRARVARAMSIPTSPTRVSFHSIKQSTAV
# Summary of the method: as §1
Compound,Emax (CRF2R),Emax (CRF1R),EC50 (CRF2R; read-out: CRF2R EC50),EC50 (CRF1R; read-out: CRF1R EC50),EC50 (CRF2R),EC50 (CRF1R; CRF1R EC50)
CC[C@H](C)[C@H](N)C(=O)N[C@H](C(=O)N[C@@H](CC(C)C)C(=O)N[C@@H](CO)C(=O)N[C@@H](CC(C)C)C(=O)N[C@@H](CC(=O)O)C(=O)N[C@H](C(=O)N1CCC[C@H]1C(=O)N[C@H](C(=O)NCC(=O)N[C@@H](CC(C)C)C(=O)N[C@@H](CC(C)C)C(=O)N[C@@H](CCC(N)=O)C(=O)N[C@H](C(=O)N[C@@H](CC(C)C)C(=O)N[C@@H](CC(C)C)C(=O)N[C@@H](CCC(=O)O)C(=O)N[C@@H](CCC(N)=O)C(=O)N[C@H](C(=O)N[C@@H](CCCCN)C(=O)N[C@@H](C)C(=O)N[C@@H](CC(N)=O)C(=O)N[C@@H](C)C(=O)N[C@@H](C)C(=O)N[C@@H](CCCNC(=N)N)C(=O)N[C@@H](CCC(=O)O)C(=O)N[C@@H](CCC(N)=O)C(=O)N[C@@H](C)C(=O)N[C@H](C(=O)N[C@H](C(=O)N[C@H](C(=O)N[C@@H](C)C(=O)N[C@@H](CCCNC(=N)N)C(=O)N[C@H](C(=O)N[C@@H](CC(C)C)C(=O)N[C@@H](C)C(=O)N[C@@H](CCCNC(=N)N)C(=O)N[C@H](C(N)=O)C(C)C)[C@@H](C)CC)C(C)C)[C@@H](C)O)[C@@H](C)O)[C@@H](C)O)[C@@H](C)CC)[C@@H](C)CC)C(C)C)C(C)C [compound 116] (H-IVLSLDVPIGLLQILLEQTKANAAREQATTVARILARV-NH2),26.4%,4.8%,–,–,–,–
HHHHHHIVLSLDVPIGLLQILLEQARARAAREQATTNARILARN-NH2 [compound 296],65%,4%,–,–,–,–
SQEPPISLDLPIGLLREVLEMTKADQLAQQAHSNRKLLDIA-NH2 [compound 93],6.4%,5%,–,–,–,–
CC[C@H](C)[C@H](N)C(=O)N[C@H](C(=O)N[C@@H](CC(C)C)C(=O)N[C@@H](CO)C(=O)N[C@@H](CC(C)C)C(=O)N[C@@H](CC(=O)O)C(=O)N[C@H](C(=O)N1CCC[C@H]1C(=O)N[C@H](C(=O)NCC(=O)N[C@@H](CC(C)C)C(=O)N[C@@H](CC(C)C)C(=O)N[C@@H](CCC(N)=O)C(=O)N[C@H](C(=O)N[C@@H](CC(C)C)C(=O)N[C@@H](CC(C)C)C(=O)N[C@@H](CCC(=O)O)C(=O)N[C@@H](CCC(N)=O)C(=O)N[C@@H](C)C(=O)N[C@@H](CCCNC(=N)N)C(=O)N[C@@H](C)C(=O)N[C@@H](CC(=O)O)C(=O)N[C@@H](C)C(=O)N[C@@H](C)C(=O)N[C@@H](CCCNC(=N)N)C(=O)N[C@@H](CCC(=O)O)C(=O)N[C@@H](CCC(N)=O)C(=O)N[C@@H](C)C(=O)N[C@H](C(=O)N[C@H](C(=O)N[C@@H](CC(N)=O)C(=O)N[C@@H](C)C(=O)N[C@@H](CCCNC(=N)N)C(=O)N[C@H](C(=O)N[C@@H](CC(C)C)C(=O)N[C@@H](C)C(=O)N[C@@H](CCCNC(=N)N)C(=O)N[C@H](C(N)=O)C(C)C)[C@@H](C)CC)[C@@H](C)O)[C@@H](C)O)[C@@H](C)CC)[C@@H](C)CC)C(C)C)C(C)C [compound 130] (H-IVLSLDVPIGLLQILLEQARADAAREQATTNARILARV-NH2; N-terminus assumed),92%,9%,8.57 nM,> 100 nM,–,–
CC[C@H](C)[C@H](N)C(=O)N[C@H](C(=O)N[C@@H](CC(C)C)C(=O)N[C@@H](CO)C(=O)N[C@@H](CC(C)C)C(=O)N[C@@H](CC(=O)O)C(=O)N[C@H](C(=O)N1CCC[C@H]1C(=O)N[C@H](C(=O)NCC(=O)N[C@@H](CC(C)C)C(=O)N[C@@H](CC(C)C)C(=O)N[C@@H](CCC(N)=O)C(=O)N[C@H](C(=O)N[C@@H](CC(C)C)C(=O)N[C@@H](CC(C)C)C(=O)N[C@@H](CCC(=O)O)C(=O)N[C@@H](CCC(N)=O)C(=O)N[C@@H](C)C(=O)N[C@@H](CCCNC(=N)N)C(=O)N[C@@H](CCC(N)=O)C(=O)N[C@@H](CCC(=O)O)C(=O)N[C@@H](C)C(=O)N[C@@H](C)C(=O)N[C@@H](CCCNC(=N)N)C(=O)N[C@@H](CCC(=O)O)C(=O)N[C@@H](CCC(N)=O)C(=O)N[C@@H](C)C(=O)N[C@H](C(=O)N[C@H](C(=O)N[C@@H](CC(N)=O)C(=O)N[C@@H](C)C(=O)N[C@@H](CCCNC(=N)N)C(=O)N[C@H](C(=O)N[C@@H](CC(C)C)C(=O)N[C@@H](C)C(=O)N[C@@H](CCCNC(=N)N)C(=O)N[C@H](C(N)=O)C(C)C)[C@@H](C)CC)[C@@H](C)O)[C@@H](C)O)[C@@H](C)CC)[C@@H](C)CC)C(C)C)C(C)C [compound 123] (H-IVLSLDVPIGLLQILLEQARQEAAREQATTNARILARV-NH2; N-terminus assumed),93.8%,9.6%,–,–,–,–
NDDPPISIDLPLYLLRNMIEMARIENEREQAGLNAKYLAEV-NH2 [compound 271],69%,80.7%,48.1 nM,815 nM,–,–
CC[C@H](C)[C@H](N)C(=O)N[C@H](C(=O)N[C@@H](CC(C)C)C(=O)N[C@@H](CO)C(=O)N[C@@H](CC(C)C)C(=O)N[C@@H](CC(=O)O)C(=O)N[C@H](C(=O)N1CCC[C@H]1C(=O)N[C@H](C(=O)NCC(=O)N[C@@H](CC(C)C)C(=O)N[C@@H](CC(C)C)C(=O)N[C@@H](CCC(N)=O)C(=O)N[C@@H](CCCCN)C(=O)N[C@@H](CCSC)C(=O)N[C@H](C(=O)N[C@@H](CCC(=O)O)C(=O)N[C@H](C(=O)N[C@@H](CCC(=O)O)C(=O)N[C@@H](CCCCN)C(=O)N[C@@H](CCC(N)=O)C(=O)N[C@@H](CCC(=O)O)C(=O)N[C@@H](CCCCN)C(=O)N[C@@H](CCC(=O)O)C(=O)N[C@@H](CCCCN)C(=O)N[C@@H](CCC(N)=O)C(=O)N[C@@H](CCC(N)=O)C(=O)N[C@@H](C)C(=O)N[C@H](C(=O)N[C@H](C(=O)N[C@@H](CC(N)=O)C(=O)N[C@@H](C)C(=O)N[C@@H](CCCNC(=N)N)C(=O)N[C@H](C(=O)N[C@@H](CC(C)C)C(=O)N[C@@H](C)C(=O)N[C@@H](CCCNC(=N)N)C(=O)N[C@H](C(N)=O)C(C)C)[C@@H](C)CC)[C@@H](C)O)[C@@H](C)O)[C@@H](C)CC)[C@@H](C)CC)[C@@H](C)CC)C(C)C)C(C)C [compound 322] (H-IVLSLDVPIGLLQKMIEIEKQEKEKQQATTNARILARV-NH2; N-terminus assumed),96.5%,10.7%,–,–,23.1 nM,≥ 1000 nM
CC[C@H](C)[C@H](N)C(=O)N[C@H](C(=O)N[C@@H](CC(C)C)C(=O)N[C@@H](CO)C(=O)N[C@@H](CC(C)C)C(=O)N[C@@H](CC(=O)O)C(=O)N[C@H](C(=O)N1CCC[C@H]1C(=O)N[C@H](C(=O)NCC(=O)N[C@@H](CC(C)C)C(=O)N[C@@H](CC(C)C)C(=O)N[C@@H](CCC(N)=O)C(=O)N[C@@H](CCC(=O)O)C(=O)N[C@H](C(=O)N[C@@H](CC(C)C)C(=O)N[C@@H](CCC(=O)O)C(=O)N[C@@H](CCSC)C(=O)N[C@@H](C)C(=O)N[C@@H](CCCNC(=N)N)C(=O)N[C@@H](C)C(=O)N[C@@H](CCC(=O)O)C(=O)N[C@@H](CCC(N)=O)C(=O)N[C@@H](CC(C)C)C(=O)N[C@@H](C)C(=O)N[C@@H](CCC(N)=O)C(=O)N[C@@H](CCC(N)=O)C(=O)N[C@@H](C)C(=O)N[C@@H](Cc1c[nH]cn1)C(=O)N[C@@H](CO)C(=O)N[C@@H](CC(N)=O)C(=O)N[C@@H](CCCNC(=N)N)C(=O)N[C@@H](CCCCN)C(=O)N[C@@H](CC(C)C)C(=O)N[C@@H](CCSC)C(=O)N[C@@H](CCC(=O)O)C(=O)N[C@H](C(=O)N[C@H](C(N)=O)[C@@H](C)CC)[C@@H](C)CC)C(C)C)[C@@H](C)CC)C(C)C)C(C)C [compound 165] (H-IVLSLDVPIGLLQEVLEMARAEQLAQQAHSNRKLMEII-NH2),75%,19%,–,–,–,–
CC[C@H](C)[C@H](N)C(=O)N[C@H](C(=O)N[C@@H](CC(C)C)C(=O)N[C@@H](CO)C(=O)N[C@@H](CC(C)C)C(=O)N[C@@H](CC(=O)O)C(=O)N[C@H](C(=O)N1CCC[C@H]1C(=O)N[C@H](C(=O)NCC(=O)N[C@@H](CC(C)C)C(=O)N[C@@H](CC(C)C)C(=O)N[C@@H](CCC(N)=O)C(=O)N[C@H](C(=O)N[C@@H](CC(C)C)C(=O)N[C@H](C(=O)N[C@@H](CCC(=O)O)C(=O)N[C@H](C(=O)N[C@@H](CCC(=O)O)C(=O)N[C@@H](CCCCN)C(=O)N[C@@H](CCC(N)=O)C(=O)N[C@@H](CCC(=O)O)C(=O)N[C@@H](CCCCN)C(=O)N[C@@H](CCC(=O)O)C(=O)N[C@@H](CCCCN)C(=O)N[C@@H](CCC(N)=O)C(=O)N[C@@H](CCC(N)=O)C(=O)N[C@@H](C)C(=O)N[C@@H](C)C(=O)N[C@@H](CC(N)=O)C(=O)N[C@@H](CC(N)=O)C(=O)N[C@@H](C)C(=O)N[C@@H](CCCNC(=N)N)C(=O)N[C@H](C(=O)N[C@@H](CC(C)C)C(=O)N[C@@H](C)C(=O)N[C@@H](CCCNC(=N)N)C(=O)N[C@H](C(N)=O)C(C)C)[C@@H](C)CC)[C@@H](C)CC)[C@@H](C)CC)[C@@H](C)CC)[C@@H](C)CC)C(C)C)C(C)C [compound 166] (H-IVLSLDVPIGLLQILIEIEKQEKEKQQAANNARILARV-NH2; N-terminus assumed),99%,95%,–,–,3.7 nM,437 nM
SQEPPISLDLPIQLLREVLEMTKADQLAQQAHSNRKLLDIA-NH2 [compound 100],9.85%,6.25%,–,–,–,–

# From patent US6936585B2, “Corticotropin releasing factor 2 receptor agonists” (priority 2002, dated 2005)
